Consider 3 molecules from patent US12178845B2, “Methods and compositions relating to the treatment of tumors” (THE GENERAL HOSPITAL CORPORATION, priority 2016, dated 2024).

Peptide text beside a SMILES is read from it. * marks the point of attachment. Cbz = O=C(OCc1ccccc1)*; CH2F = FC*

Data set [1] relates to ASC in HEI-193 cell line. Nature of the data set: Demethylation of ASC CpG island, ASC expression by RT-PCR. In kind it is cell-based, human. On the procedure:
The cultured cells were treated with (5azadeoxycytindine 0.5, 1 or 2.5 uM) or not treated (0) for 3 days.
Real-time quantitative PCR analyses. RNA isolation from tissue samples was conducted with TRIzol™ reagent according to the manufacturer's instructions (Qiagen, USA) and transcribed into cDNA using superscript VILO™ cDNA synthesis kit (Invitrogen, USA). Taqman™ real-time PCR was carried out using RealPlex MasterCycler™ (eppendorf, USA). […] Taqman probes were purchased from life technologies, USA.

Data set [2] concerns HEI-193 cells. The data set can be described thus: In vitro apoptosis staining (TACS 2 TdT-DAB). Type of data set: cell-based, human. The note with it: HEI-193 transfected with pAAV-CBA-hASC. On the procedure:
To determine whether the ASC/TMS1-mediated growth inhibition was the result of caspases induced apoptosis, in vitro apoptosis staining was performed using TACS 2 TdT-DAB In situ Apoptosis Detection kit (Trevigen).
Apoptosis assay. In-vitro DNA fragmentation of apoptotic cells was assessed TACS® 2 TdT-DAB in Situ Apoptosis Detection Kit. In brief, HEI-193 cells on the coated cover glass and transfected with dsAAV-CBA-ASC or dsAAV-CBA-GFP. Fragmented DNA were visualized with diaminobenzidine (DAB) and viewed by light microscope. In-vivo apoptosis study was assessed using the same kit on fresh frozen nerves that were sliced to 15 um thin sections using cryostat and fixed in 3.7% formaldehyde.

The test system of data set [3] is 08031-9 cells. The data set can be described thus: In vitro apoptotic body staining. Type of data set: cell-based, mouse. The note with it: 08031-9 transfected with pAAV-CBA-hASC.
In data set [4] the test system is HEI-193 human schwannoma cell line. As to conditions: HEI193 cells transfected with pAAV-CBA-hASC.
Method: For all cell types, growth media were supplemented with 10% fetal bovine serum (FBS; Sigma-Aldrich) and 1% penicillin-streptomycin (Cellgro, Herndon, VA) and cells were maintained at 37° C. in a humidified atmosphere of 5% CO2 and 95% air. […] For transfections in 24-well format, 100,000 cells were seeded 24 hours prior to transfection. 1 μl of liofectamine 2000 (Invitrogen, USA) was used for every 500 ng of transfected plasmid in FBS free medium (Optimem, Invitrogen, USA). The DNA/Lipofectamine mix was incubated at room temperature for 30 minutes before spread over the cells and left for 5-6 hours then replaced by fresh medium. The amount of plasmid/lipofectamine was scaled up according to the plate format used.
Cell viability and toxicity assay. The Cell Titer-Glo™ luminescent cell viability assay (Promega, Madison, WI) was used to determine the number of viable cells in culture on the basis of quantitation of ATP levels, an indicator of metabolically active cells. […] The luminescence was measured with a luminometer (Dynex Technologies, Chantilly, VA). Cell death was measured by the LDH assay using CytoTox 96 Non-Radioactive Cytotoxicity Assay kit (Promega) according to the manufacturer's instructions.

Regarding `Nc1ncn([C@H]2C[C@H](O)[C@@H](CO)O2)c(=O)n1` [5azadeoxycytidine], in data set [1], the ASC promoter methylation entry is given as “reversible”. In data set [1] (0.5, 1 or 2.5 uM for 3 days, ASC-negative HEI-193), the “ASC expression (RT-PCR, normalized to β-actin)” value was “restores expression”.
As for `COC(=O)CC[C@H](NC(=O)[C@H](CC(=O)OC)NC(=O)OCc1ccccc1)C(=O)N[C@H](C(=O)N[C@@H](CC(=O)OC)C(=O)CF)C(C)C` [ZDEVD-FMK], the “apoptosis in presence of caspase inhibitor” value in data set [2] was “no apoptosis”; in data set [2] (listed as ZDEVDFMK), “inhibit”; in data set [2] (listed as caspase-3 inhibitor), “abolished”; in data set [3] it was “abolished”. The “LDH release cytotoxicity in presence of caspase inhibitor” value in data set [4] is “inhibited”.
Turning to `COC(=O)C[C@H](NC(=O)[C@H](C)NC(=O)[C@@H](NC(=O)OCc1ccccc1)C(C)C)C(=O)CF` [ZVAD-FMK] (Cbz-Val-Ala-Asp(OMe)-CH2F), the “apoptosis in presence of caspase inhibitor” value is “no apoptosis” in data set [2], “inhibit” in data set [2] (listed as ZVADFMK), “abolished” in data set [2] (listed as pan-caspase inhibitor) and “abolished” in data set [3]. Also, in data set [4], the “LDH release cytotoxicity in presence of caspase inhibitor” value was “inhibited”.
